In US20240409585A1, “MACROCYCLIC IMMUNOMODULATORS” (priority 2021, published 2024):
Numbered stars: 1 amine (or outer) side, 2 acyl side, 3 side chain; on linkers, the order of the positions; unused ones are H or OH. Bridge positions count the residues as written; N and C are the ends. Square brackets hold non-standard residues; d marks the D form. Peptide text beside a SMILES is read from it. * marks the point of attachment. ξ: configuration not given here. Ala(piperidin-4-yl) = O=C([C@H](CC1CCN([*:3])CC1)N[*:1])[*:2]; Trp(1-CH2COOH) = N[C@@H](Cc1cn(CC(=O)O)c2ccccc12)C(=O)O; Ala(1H-tetrazol-5-yl) = N[C@@H](Cc1nnn[nH]1)C(=O)O; Phe(4-COOH) = N[C@@H](Cc1ccc(C(=O)O)cc1)C(=O)O; Bip = N[C@@H](Cc1ccc(-c2ccccc2)cc1)C(=O)O; Phe(3-OMe) = COc1cccc(C[C@H](N)C(=O)O)c1; X50 = C[C@@H](C(=O)[*:2])N(CCCCCN)[*:1]; Phe(3-Me) = Cc1cccc(C[C@H](N)C(=O)O)c1; hArg = N=C(N)NCCCC[C@H](N)C(=O)O; 3Pal = N[C@@H](Cc1cccnc1)C(=O)O; 4Pal = N[C@@H](Cc1ccncc1)C(=O)O; Cha = N[C@@H](CC1CCCCC1)C(=O)O; Cit = NC(=O)NCCC[C@H](N)C(=O)O; Ile(3ξ) = CCC(C)[C@H](N)C(=O)O; dNMeNle = CCCC[C@@H](NC)C(=O)O; Thr(3ξ) = CC(O)[C@H](N)C(=O)O; Carboxymethyl = O=C(O)C*; NMeA = CN[C@@H](C)C(=O)O; Dab = NCC[C@H](N)C(=O)O; Dap = NC[C@H](N)C(=O)O

Target: T1, PE-labeled human PD-L1-Ig binding to Jurkat cell line over-expressing human PD-1 (Jurkat-PD-1) (Homo sapiens, UniProt Q15116)
T1 construct: expressed in transfected cells; host or cells: Jurkat
T1 sequence (Q15116 25-288): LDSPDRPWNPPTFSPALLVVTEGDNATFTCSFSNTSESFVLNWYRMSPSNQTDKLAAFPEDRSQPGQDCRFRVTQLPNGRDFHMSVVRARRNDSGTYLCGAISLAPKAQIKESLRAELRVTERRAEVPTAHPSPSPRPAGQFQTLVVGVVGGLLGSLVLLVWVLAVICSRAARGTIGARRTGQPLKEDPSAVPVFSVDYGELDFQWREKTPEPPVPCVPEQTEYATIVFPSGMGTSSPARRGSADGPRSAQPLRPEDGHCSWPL
Experiment: Jurkat-PD-1 Cell Binding High-Content Screening Assay (CBA): Method 1
Details: Jurkat-hPD-1 cells, PE-labeled PD-L1-Ig 20 nM final; read-out: Jurkat HPDL1 PD1 IC50 (uM) (Method 1)

Point of comparison: `CC(C)C[C@@H]1NC(=O)[C@H](Cc2c[nH]c3ccccc23)NC(=O)[C@H](Cc2nn[nH]n2)NC(=O)[C@H](Cc2ccc(O)cc2)NC(=O)[C@H](Cc2ccccc2)NC(=O)CSC[C@@H](C(=O)N[C@@H](C)C(N)=O)NC(=O)[C@H](CO)NC(=O)[C@H](C(C)C)NC(=O)[C@H](CC(C)C)NC(=O)[C@H](CC(N)=O)NC(=O)[C@@H](C)NC(=O)[C@H](C)N(C)C(=O)[C@H](C(C)C)NC(=O)[C@H](Cc2ccc(-c3ccccc3)cc2)NC1=O` [Compound 1540] ({CH2CO}-FY[Ala(1H-tetrazol-5-yl)]WL[Bip]V[NMeA][dA]NLVSCA-NH2; thioether N-14), IC50 0.03 µM. Against it:
- CC(C)C[C@@H]1NC(=O)[C@H](CCCNC(=N)N)NC(=O)[C@@H](CC(C)C)NC(=O)[C@H](C)N(C)C(=O)[C@H](CCCNC(=N)N)NC(=O)[C@H](Cc2ccc(-c3ccccc3)cc2)NC(=O)[C@H](C(C)C)NC(=O)[C@H](Cc2c[nH]c3ccccc23)NC(=O)[C@H](CC(=O)O)NC(=O)[C@H](Cc2ccc(O)cc2)NC(=O)[C@H](Cc2cccnc2)NC(=O)CSC[C@@H](C(=O)N[C@@H](C)C(N)=O)NC(=O)[C@H]([C@@H](C)O)NC(=O)[C@H](C(C)C)NC1=O [Compound 1049] ({CH2CO}-[3Pal]YDWV[Bip]R[NMeA][dL]RLVTCA-NH2; thioether N-14) — 3-fold lower, 0.01 µM
- CCC(C)[C@@H]1NC(=O)[C@H](Cc2ccc(-c3ccccc3)cc2)NC(=O)[C@H](C(C)C)NC(=O)[C@H](Cc2c[nH]c3ccccc23)NC(=O)[C@H](CC(=O)O)NC(=O)[C@H](Cc2ccc(OCC(=O)O)cc2)NC(=O)[C@H](C(C)O)NC(=O)CSC[C@@H](C(N)=O)NC(=O)[C@H](CO)NC(=O)[C@H](C(C)C)NC(=O)[C@H](CC2CCCCC2)NC(=O)[C@H](CCN)NC(=O)[C@@H](CC(C)C)NC(=O)[C@H](C)N(C)C1=O (stereo partly drawn) [Compound 2251] ({CH2CO}-[Thr(3ξ)]Y(Carboxymethyl)DWV[Bip][Ile(3ξ)][NMeA][dL][Dab][Cha]VSC-NH2; thioether N-14) — 1.5-fold lower, 0.02 µM
- CC(C)C[C@@H]1NC(=O)[C@H](CCN)NC(=O)[C@@H](CC(C)C)NC(=O)[C@H](C)N(C)C(=O)[C@H](C(C)C)NC(=O)[C@H](Cc2ccc(-c3ccccc3)cc2)NC(=O)[C@H](C(C)C)NC(=O)[C@H](Cc2c[nH]c3ccccc23)NC(=O)[C@H](CC(=O)O)NC(=O)[C@H](Cc2ccc(OCC(=O)O)cc2)NC(=O)[C@H](Cc2ccncc2)NC(=O)CSC[C@@H](C(=O)N[C@@H](C)C(N)=O)NC(=O)[C@H]([C@@H](C)O)NC(=O)[C@H](C(C)C)NC1=O [Compound 1565] ({CH2CO}-[4Pal]Y(Carboxymethyl)DWV[Bip]V[NMeA][dL][Dab]LVTCA-NH2; thioether N-14) — 3-fold lower, 0.01 µM
- CCC(C)[C@@H]1NC(=O)[C@H](Cc2ccc(-c3ccccc3)cc2)NC(=O)[C@H](CC(C)C)NC(=O)[C@H](Cc2c[nH]c3ccccc23)NC(=O)[C@H](CC(=O)O)NC(=O)[C@H](Cc2ccc(C(=O)O)cc2)NC(=O)[C@H](Cc2ccc(OCC(=O)O)cc2)NC(=O)CSC[C@@H](C(=O)N[C@@H](CC(N)=O)C(N)=O)NC(=O)[C@H](CCC(N)=O)NC(=O)[C@H](C(C)C)NC(=O)[C@H](CC2CCCCC2)NC(=O)[C@H](CCN)NC(=O)[C@@H](CC(C)C)NC(=O)[C@H](C)N(C)C1=O (stereo partly drawn) [Compound 1925] ({CH2CO}-Y(Carboxymethyl)[Phe(4-COOH)]DWL[Bip][Ile(3ξ)][NMeA][dL][Dab][Cha]VQCN-NH2; thioether N-14) — the same, 0.03 µM
- CCC(C)[C@@H]1NC(=O)[C@H](Cc2ccc(-c3ccccc3)cc2)NC(=O)[C@H](C(C)C)NC(=O)[C@H](Cc2c[nH]c3ccccc23)NC(=O)[C@H](CC(=O)O)NC(=O)[C@H](Cc2ccc(O)cc2)NC(=O)[C@H](CC2CCNCC2)NC(=O)CSC[C@@H](C(=O)N[C@@H](C)C(N)=O)NC(=O)[C@H](C(C)O)NC(=O)[C@H](C(C)C)NC(=O)[C@H](CC2CCCCC2)NC(=O)[C@H](CCN)NC(=O)[C@@H](CC(C)C)NC(=O)[C@H](C)N(C)C1=O (stereo partly drawn) [Compound 2043] ({CH2CO}-[Ala(piperidin-4-yl)]YDWV[Bip][Ile(3ξ)][NMeA][dL][Dab][Cha]V[Thr(3ξ)]CA-NH2; thioether N-14) — 3-fold lower, 0.01 µM
- CC(C)C[C@@H]1NC(=O)[C@H](CCCNC(=N)N)NC(=O)[C@@H](C)NC(=O)[C@H](C)N(C)C(=O)[C@H](CCCNC(=N)N)NC(=O)[C@H](Cc2ccc(-c3ccccc3)cc2)NC(=O)[C@H](C(C)C)NC(=O)[C@H](Cc2c[nH]c3ccccc23)NC(=O)[C@H](CC(=O)O)NC(=O)[C@H](Cc2ccc(O)cc2)NC(=O)[C@H](Cc2ccccc2)NC(=O)CSC[C@@H](C(=O)NCC(N)=O)NC(=O)[C@H](CO)NC(=O)[C@H](C(C)C)NC1=O [Compound 1016] ({CH2CO}-FYDWV[Bip]R[NMeA][dA]RLVSCG-NH2; thioether N-14) — 4.3-fold higher, 0.13 µM
- CC(C)C[C@@H]1NC(=O)[C@H](CCN)NC(=O)[C@@H](CC(C)C)NC(=O)[C@H](C)N(C)C(=O)[C@H](CCCNC(N)=O)NC(=O)[C@H](Cc2ccc(-c3ccccc3)cc2)NC(=O)[C@H](C(C)C)NC(=O)[C@H](Cc2c[nH]c3ccccc23)NC(=O)[C@H](CC(=O)O)NC(=O)[C@H](Cc2ccc(O)cc2)NC(=O)[C@H](CCCCNC(=N)N)NC(=O)CSC[C@@H](C(=O)N[C@@H](C)C(N)=O)NC(=O)[C@H]([C@@H](C)O)NC(=O)[C@H](C(C)C)NC1=O [Compound 1349] ({CH2CO}-[hArg]YDWV[Bip][Cit][NMeA][dL][Dab]LVTCA-NH2; thioether N-14) — 2-fold higher, 0.06 µM
- CC(C)C[C@@H]1NC(=O)[C@H](Cc2c[nH]c3ccccc23)NC(=O)[C@H](CC(=O)O)NC(=O)[C@H](Cc2ccc(O)cc2)NC(=O)[C@H](Cc2ccccc2)NC(=O)CSC[C@@H](C(=O)N[C@@H](C)C(N)=O)NC(=O)[C@H](CO)NC(=O)[C@H](CCN)NC(=O)[C@H](CC(C)C)NC(=O)[C@H](CC(N)=O)NC(=O)[C@@H](CC(C)C)NC(=O)[C@H](C)N(C)C(=O)[C@H](C(C)C)NC(=O)[C@H](Cc2ccc(-c3ccccc3)cc2)NC1=O [Compound 1538] ({CH2CO}-FYDWL[Bip]V[NMeA][dL]NL[Dab]SCA-NH2; thioether N-14) — 3.3-fold higher, 0.1 µM
- COc1cccc(C[C@@H]2NC(=O)[C@H](CC(=O)O)NC(=O)[C@H](Cc3ccc(O)cc3)NC(=O)[C@H](Cc3ccccc3)NC(=O)CSC[C@@H](C(=O)N[C@@H](C)C(N)=O)NC(=O)[C@H](CO)NC(=O)[C@H](C(C)C)NC(=O)[C@H](CC(C)C)NC(=O)[C@H](CC(N)=O)NC(=O)[C@@H](C)NC(=O)[C@H](C)N(C)C(=O)[C@H](C(C)C)NC(=O)[C@H](Cc3ccc(-c4ccccc4)cc3)NC(=O)[C@H](CC(C)C)NC2=O)c1 [Compound 1739] ({CH2CO}-FYD[Phe(3-OMe)]L[Bip]V[NMeA][dA]NLVSCA-NH2; thioether N-14) — 1.5-fold lower, 0.02 µM
- CC(C)C[C@@H]1NC(=O)[C@H](Cc2c[nH]c3ccccc23)NC(=O)[C@H](CC(=O)O)NC(=O)[C@H](Cc2ccc(O)cc2)NC(=O)[C@H](Cc2ccccc2)NC(=O)CSC[C@@H](C(=O)N[C@@H](C)C(N)=O)NC(=O)[C@H](CO)NC(=O)[C@H](C(C)C)NC(=O)[C@H](CC(C)C)NC(=O)[C@H](CCC(=O)O)NC(=O)[C@@H](C)NC(=O)[C@H](C)N(C)C(=O)[C@H](C(C)C)NC(=O)[C@H](Cc2ccc(-c3ccccc3)cc2)NC1=O [Compound 1749] ({CH2CO}-FYDWL[Bip]V[NMeA][dA]ELVSCA-NH2; thioether N-14) — 1.5-fold lower, 0.02 µM
- CC(C)C[C@@H]1NC(=O)[C@H](CCN)NC(=O)[C@@H](CC(C)C)NC(=O)[C@H](C)N(C)C(=O)[C@H](CCC(=O)O)NC(=O)[C@H](Cc2ccc(-c3ccccc3)cc2)NC(=O)[C@H](C(C)C)NC(=O)[C@H](Cc2c[nH]c3ccccc23)NC(=O)[C@H](CC(=O)O)NC(=O)[C@H](Cc2ccncc2)NC(=O)[C@H](CN)NC(=O)CSC[C@@H](C(=O)N[C@@H](C)C(N)=O)NC(=O)[C@H](CO)NC(=O)[C@H](C(C)C)NC1=O [Compound 1576] ({CH2CO}-[Dap][4Pal]DWV[Bip]E[NMeA][dL][Dab]LVSCA-NH2; thioether N-14) — 3.7-fold higher, 0.11 µM
- CC(C)C[C@@H]1NC(=O)[C@H](CCCNC(=N)N)NC(=O)[C@H](Cc2cn(CC(=O)O)c3ccccc23)NC(=O)[C@H](C)N(C)C(=O)[C@H](CCCNC(=N)N)NC(=O)[C@H](Cc2ccc(-c3ccccc3)cc2)NC(=O)[C@H](C(C)C)NC(=O)[C@H](Cc2c[nH]c3ccccc23)NC(=O)[C@H](CC(=O)O)NC(=O)[C@H](Cc2ccc(O)cc2)NC(=O)[C@H](Cc2ccccc2)NC(=O)CSC[C@@H](C(=O)NCC(N)=O)NC(=O)[C@H](CO)NC(=O)[C@H](C(C)C)NC1=O [Compound 1011] ({CH2CO}-FYDWV[Bip]R[NMeA][Trp(1-CH2COOH)]RLVSCG-NH2; thioether N-14) — 3.3-fold higher, 0.1 µM
- CC(C)C[C@@H]1NC(=O)[C@H](CCN)NC(=O)[C@@H](CC(C)C)NC(=O)[C@H](C)N(CCCCCN)C(=O)[C@H](CCCNC(=N)N)NC(=O)[C@H](Cc2ccc(-c3ccccc3)cc2)NC(=O)[C@H](C(C)C)NC(=O)[C@H](Cc2c[nH]c3ccccc23)NC(=O)[C@H](CC(=O)O)NC(=O)[C@H](Cc2ccc(O)cc2)NC(=O)[C@H](CC(N)=O)NC(=O)CSC[C@@H](C(=O)N[C@@H](C)C(N)=O)NC(=O)[C@H]([C@@H](C)O)NC(=O)[C@H](C(C)C)NC1=O [Compound 1257] ({CH2CO}-NYDWV[Bip]R[X50][dL][Dab]LVTCA-NH2; thioether N-14) — 4.3-fold higher, 0.13 µM
- CCCC[C@@H]1C(=O)N[C@@H](Cc2ccc(OCC(=O)O)cc2)C(=O)N[C@@H](CC(=O)O)C(=O)N[C@@H](Cc2cccc(C)c2)C(=O)N[C@@H](Cc2ccc(OCC(=O)O)cc2)C(=O)N[C@@H](Cc2ccc(-c3ccccc3)cc2)C(=O)N[C@@H](Cc2ccc(OCC(=O)O)cc2)C(=O)N(C)[C@@H](C)C(=O)N[C@H](CC(C)C)C(=O)N[C@@H](CCN)C(=O)N[C@@H](CC2CCCCC2)C(=O)N[C@@H](C(C)C)C(=O)N[C@@H](CO)C(=O)N[C@H](C(=O)N[C@@H](CCN)C(N)=O)CSCC(=O)N1C [Compound 1859] ({CH2CO}-[dNMeNle]Y(Carboxymethyl)D[Phe(3-Me)]Y(Carboxymethyl)[Bip]Y(Carboxymethyl)[NMeA][dL][Dab][Cha]VSC[Dab]-NH2; thioether N-14) — 1.7-fold higher, 0.05 µM
